{"source": "patent US20240197788A1", "about": "“PHARMACEUTICAL COMPOSITION FOR PREVENTING OR TREATING PARKINSON'S DISEASE, AND PREPARATION METHOD THEREOF” (INDUSTRY FOUNDATION OF CHONNAM NATIONAL UNIVERSITY, priority 2021, published 2024)", "key": {"[1]": {"test": "Rotenone toxicity, trypan blue cell counting of surviving cells", "format": "cell-based", "settings": "human, SH-SY5Y neuroblastoma cells, 0.5 μM rotenone", "description": "The human neuroblastoma cell line, that is, SH-SY5Y (RRID: CVCL 0019; ATCC® CRL-2266) was cultured in DMEM supplemented with 10% FBS and 1% penicillin-streptomycin (Welgene Inc., Gyeonsangbuk-do, Republic of Korea) at 37° C. under a wet condition of 5% CO2/95% air. The mixed culture (passages 15-22) was washed with phosphate-buffered saline (PBS), the cells were isolated with 0.25% trypsin-EDTA solution and then reseeded in DMEM containing 1% FBS at 5×10^4 cells/Ml. Then, after overnight incubation, it was used for experiments. ROT (Sigma R8875) stock was prepared at a concentration of 10 mM in […] (DMSO; Sigma D2650) solvent, stored at −80° C., and used within 6 months. Before starting each experiment, a serum-free DMEM culture was diluted to prepare a ROT stock working solution.\nSH-SY5Y cells were divided into a treated group treated with ROT (0.5 μM) for 24 hours and an untreated group, followed by culturing in DMSO solvent. […] The number of surviving cells was counted using LUNA-II™ (Logos Biosystems, Gyeonggi-do, Republic of Korea) automatic cell counter. Cell count analysis was performed three times and expressed as a percentage (%) of the control."}, "[2]": {"system": "tyrosine hydroxylase (TH)", "test": "Western blot of tyrosine hydroxylase protein expression in SH-SY5Y cells", "format": "cell-based, human", "settings": "0.5 μM rotenone alone; FIGS. 3 and 4", "description": "(§1) SH-SY5Y cells were divided into a treated group treated with ROT (0.5 μM) for 24 hours and an untreated group, followed by culturing in DMSO solvent. Thereafter, the culture was removed, and the cells were divided into hBMSC-CM-treated group, NI-hBMSC-CM-treated group, hADSC-CM-treated group and NI-hADSC-CM-treated group in 50% diluted DMEM, followed by culturing each group in ROT (0.5 μM)-treated and untreated groups, respectively, for 24 hours. FBS was maintained at a concentration of 1% throughout the study. Phase contrast images were taken using an Olympus microscope (CKX41) equipped with a camera. […] The number of surviving cells was counted using LUNA-II™ (Logos Biosystems, Gyeonggi-do, Republic of Korea) automatic cell counter. Cell count analysis was performed three times and expressed as a percentage (%) of the control.\n(§2) After incubation for a total of 48 hours, the cells were scraped using a cell scraper, washed twice with PBS, and then exposed to a cell lysis buffer supplemented with protease inhibitor and phosphatase inhibitor (100 mM Tris-HCl (pH 7.6), 100 mM NaCl, 1% Nonidet P-40, 1% sodium deoxycholate, 0.1% sodium dodecyl sulfate (SDS) and 1% Triton X-100), followed by incubation on ice for 30 minutes. […] The protein concentration was measured using a BCA protein assay kit (Thermo Fisher Scientific, Waltham, MA, USA #23225) according to the manufacturer's instructions. […]"}, "[3]": {"system": "Triton X-100 insoluble alpha-synuclein (p-S129 α-syn, total α-syn)", "test": "Western blot of Triton X-100 insoluble alpha-synuclein in SH-SY5Y cells", "format": "cell-based, human", "settings": "ROT-treated group, insoluble fraction", "description": "(§3) SH-SY5Y cells were divided into a treated group treated with ROT (0.5 μM) for 24 hours and an untreated group, followed by culturing in DMSO solvent. Thereafter, the culture was removed, and the cells were divided into hBMSC-CM-treated group, NI-hBMSC-CM-treated group, hADSC-CM-treated group and NI-hADSC-CM-treated group in 50% diluted DMEM, followed by culturing each group in ROT (0.5 μM)-treated and untreated groups, respectively, for 24 hours. FBS was maintained at a concentration of 1% throughout the study. Phase contrast images were taken using an Olympus microscope (CKX41) equipped with a camera. Damaged and depleted suspended cells in the culture and adherent cells isolated by trypsinization were combined and a trypan blue cell counting method was applied. The number of surviving cells was counted using LUNA-II™ (Logos Biosystems, Gyeonggi-do, Republic of Korea) automatic cell counter. Cell count analysis was performed three times and expressed as a percentage (%) of the control.\nAfter 48 hours of experiment, SH-SY5Y cells were lysed in cell lysis buffer containing a protease inhibitor and a phosphatase inhibitor together with the above-described 1% Triton X-100 for 30 minutes. […] The protein concentration was measured using a BCA protein assay kit. […] The same protein load was assessed by the expression level of GAPDH used as an internal control. […]"}, "[4]": {"system": "NF—H, β3-tubulin, NeuN, SYP", "test": "Western blot of neuron-specific proteins in SH-SY5Y cells", "format": "cell-based, human", "settings": "rotenone treatment (0.5 μM, 48 hours); FIGS. 13A-13D, 14A-14D", "description": "(§4) After incubation for a total of 48 hours, the cells were scraped using a cell scraper, washed twice with PBS, and then exposed to a cell lysis buffer supplemented with protease inhibitor and phosphatase inhibitor (100 mM Tris-HCl (pH 7.6), 100 mM NaCl, 1% Nonidet P-40, 1% sodium deoxycholate, 0.1% sodium dodecyl sulfate (SDS) and 1% Triton X-100), followed by incubation on ice for 30 minutes. The eluate was centrifuged at 13,200 rpm and at 4° C. for 15 minutes, and the supernatant was collected. The protein concentration was measured using a BCA protein assay kit (Thermo Fisher Scientific, Waltham, MA, USA #23225) according to the manufacturer's instructions.\nProtein (15 μg) was separated on an 8-14% SDS-polyacrylamide gel and transferred to a nitrocellulose membrane (Millipore, Berlington, MA, USA, HATF00010), and the membrane was washed with PBS containing 0.5% (v/v) Tween 20 (PBS-T), followed by blocking with 5% (v/v) non-fat dry milk solution included in the preparation of PBS-T. Then, it was incubated overnight at 4° C. with the primary antibody. Thereafter, the cell membrane was exposed to a secondary antibody conjugated to horseradish peroxidase at room temperature (RT) for 2-3 hours, and washed three times with PBS-T. Signals were detected by an enhanced chemiluminescence (ECL) system (Millipore, WBLUR0500) using a LAS 4000 luminescent image analyzer (GE Healthcare, Japan). […]"}, "BAX, Bcl-2 and Mcl-1": {"system": "BAX, Bcl-2 and Mcl-1", "test": "Western blot of apoptosis-related proteins Bax, Bcl-2, Mcl-1 in SH-SY5Y cells", "format": "cell-based, human", "settings": "rotenone alone", "description": "as §3, §4\nProtein (15 μg) was separated on an 8-14% SDS-polyacrylamide gel and transferred to a nitrocellulose membrane (Millipore, Berlington, MA, USA, HATF00010), and the membrane was washed with PBS containing 0.5% (v/v) Tween 20 (PBS-T), followed by blocking with 5% (v/v) non-fat dry milk solution included in the preparation of PBS-T. Then, it was incubated overnight at 4° C. with the primary antibody. […]"}, "[5]": {"system": "procaspase-9, 3 and 7, PARP-1", "test": "Western blot of caspase proteins and PARP-1 cleavage in SH-SY5Y cells", "format": "cell-based, human", "settings": "rotenone alone; FIGS. 17A-17D, 18A-18D", "description": "as §1, §2"}}}
{"compound": "C=C(C)[C@H]1Cc2c(ccc3c2O[C@@H]2COc4cc(OC)c(OC)cc4[C@@H]2C3=O)O1", "note": "[rotenone]", "values": [{"measurement": "viability at 48 h, 0.5 μM", "setting": "[1]", "result": 55, "unit": "%"}, {"measurement": "protein expression of tyrosine hydroxylase", "setting": "[2]", "result": "decreased"}, {"measurement": "phosphorylated S129 alpha-synuclein/total alpha-synuclein ratio with respect to dimers and monomers", "setting": "[3]", "result": "significantly decreased"}, {"measurement": "expression of NF—H, β3-tubulin, NeuN and SYP", "setting": "[4]", "result": "reduced"}, {"measurement": "Bax/Bcl-2 ratio", "setting": "BAX, Bcl-2 and Mcl-1", "result": "greatly increased"}, {"measurement": "Bax expression", "setting": "BAX, Bcl-2 and Mcl-1; FIGS. 15A-15D, 16A-16D", "result": "significantly increased"}, {"measurement": "expression of Bcl-2 and Mcl-1", "setting": "BAX, Bcl-2 and Mcl-1; FIGS. 15A-15D, 16A-16D", "result": "significantly inhibited"}, {"measurement": "cleaved-PARP/pro-PARP ratio", "setting": "[5]", "result": "greatly increased"}, {"measurement": "expression of procaspase-9, 3 and 7", "setting": "[5]", "result": "greatly decreased"}]}
